Results taken from PMC12152147, “DDB1 engagement defines the selectivity of S656 analogs for cyclin K degradation over CDK inhibition” (EMBO Reports, 2025).
“And” between values parts separate entries of the source, which are not always exact repeats. Equal values may be shown once. Read-outs that look alike come from different tables or passages of the source.

Assays:
[1] = tested on: OCI-AML5 cells expressing shRNA targeting CUL4A or CUL4B; experiment: Dose response in OCI-AML5 expressing shRNAs targeting CUL4A, CUL4B or control; type: cell-based, H. sapiens; conditions: OCI-AML5, 4 days
CDK12/Cyclin K = target: T1, CDK12/Cyclin K (Homo sapiens, UniProt Q9NYV4); experiment: CDK12/CyclinK in vitro kinase assay (BPS kit, Kinase Glo MAX); type: biochemical; conditions: for in vitro inhibition of CDK12/Cyclin K activity: in % (unit assumed)
T1 construct: purchased BPS Bioscience 78298
T1 sequence (Q9NYV4 whole entry): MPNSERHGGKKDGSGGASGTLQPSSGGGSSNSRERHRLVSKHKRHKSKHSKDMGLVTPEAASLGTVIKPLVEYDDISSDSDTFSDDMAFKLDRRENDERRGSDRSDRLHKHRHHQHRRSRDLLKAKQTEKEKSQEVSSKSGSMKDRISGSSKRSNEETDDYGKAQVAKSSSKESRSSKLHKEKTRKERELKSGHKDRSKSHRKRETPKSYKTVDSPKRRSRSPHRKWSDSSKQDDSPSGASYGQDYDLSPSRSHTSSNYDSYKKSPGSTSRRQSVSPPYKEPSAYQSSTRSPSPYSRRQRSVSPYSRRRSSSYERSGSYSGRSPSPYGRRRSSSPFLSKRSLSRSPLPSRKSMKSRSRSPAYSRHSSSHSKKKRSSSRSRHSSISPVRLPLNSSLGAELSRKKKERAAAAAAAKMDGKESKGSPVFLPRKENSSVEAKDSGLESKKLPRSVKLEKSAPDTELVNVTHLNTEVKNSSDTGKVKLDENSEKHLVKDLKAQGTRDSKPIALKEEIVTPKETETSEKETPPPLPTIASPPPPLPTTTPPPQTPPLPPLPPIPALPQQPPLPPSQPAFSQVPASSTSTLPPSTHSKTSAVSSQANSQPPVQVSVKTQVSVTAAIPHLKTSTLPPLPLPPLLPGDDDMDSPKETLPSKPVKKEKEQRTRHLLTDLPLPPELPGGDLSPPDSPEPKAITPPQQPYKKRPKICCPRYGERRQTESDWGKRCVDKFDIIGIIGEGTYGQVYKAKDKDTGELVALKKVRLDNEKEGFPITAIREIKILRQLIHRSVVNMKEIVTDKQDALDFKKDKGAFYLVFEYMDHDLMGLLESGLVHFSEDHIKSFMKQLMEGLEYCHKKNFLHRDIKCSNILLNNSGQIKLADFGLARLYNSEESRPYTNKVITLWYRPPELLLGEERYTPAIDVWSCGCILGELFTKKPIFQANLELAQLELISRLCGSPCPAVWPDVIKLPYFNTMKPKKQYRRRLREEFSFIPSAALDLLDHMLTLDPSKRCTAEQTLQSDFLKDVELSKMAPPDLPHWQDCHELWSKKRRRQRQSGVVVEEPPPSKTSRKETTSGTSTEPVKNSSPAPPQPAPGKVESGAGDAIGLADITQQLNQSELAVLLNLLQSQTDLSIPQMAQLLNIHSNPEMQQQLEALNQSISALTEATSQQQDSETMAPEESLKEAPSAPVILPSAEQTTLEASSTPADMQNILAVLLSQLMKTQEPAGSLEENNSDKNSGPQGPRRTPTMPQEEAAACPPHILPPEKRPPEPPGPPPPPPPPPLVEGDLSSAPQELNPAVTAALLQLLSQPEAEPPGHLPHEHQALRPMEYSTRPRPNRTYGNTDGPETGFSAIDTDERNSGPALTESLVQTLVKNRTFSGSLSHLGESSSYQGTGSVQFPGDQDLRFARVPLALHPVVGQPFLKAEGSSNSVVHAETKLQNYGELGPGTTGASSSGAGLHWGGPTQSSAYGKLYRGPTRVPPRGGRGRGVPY
T1 sequence (O75909 whole entry partner): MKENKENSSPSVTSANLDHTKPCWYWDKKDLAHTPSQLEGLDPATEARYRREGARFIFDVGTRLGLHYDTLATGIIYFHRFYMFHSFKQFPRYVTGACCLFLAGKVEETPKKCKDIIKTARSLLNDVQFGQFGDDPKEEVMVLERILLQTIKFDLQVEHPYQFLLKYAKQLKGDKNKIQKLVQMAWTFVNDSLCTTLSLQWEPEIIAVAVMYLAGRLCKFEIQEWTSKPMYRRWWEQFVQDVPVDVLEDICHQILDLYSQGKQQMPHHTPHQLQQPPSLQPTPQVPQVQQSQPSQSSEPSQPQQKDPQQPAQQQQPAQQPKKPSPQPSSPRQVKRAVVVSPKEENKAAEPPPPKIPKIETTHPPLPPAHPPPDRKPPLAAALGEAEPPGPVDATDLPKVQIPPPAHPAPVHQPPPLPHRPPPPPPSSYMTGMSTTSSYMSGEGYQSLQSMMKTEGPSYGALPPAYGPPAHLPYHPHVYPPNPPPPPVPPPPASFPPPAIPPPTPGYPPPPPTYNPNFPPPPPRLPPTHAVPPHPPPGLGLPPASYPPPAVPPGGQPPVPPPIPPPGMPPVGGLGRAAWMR
Description: Kinase activity was assessed using the kinase assay kits from BPS Bioscience for CDK1, CDK9 and CDK12 with Kinase Glo MAX in duplicates. Compounds were tested at a single concentration of 1 μM for CDK1 and CDK9 activity, and in a dilution ranging from 0.64 nM to 50 μM for CDK12 activity. Chemiluminescence was read using the Neo Synergy BioTek plate reader.

primary AML specimens = experiment: Dose-response assays in primary AML specimens (6 days, CellTiterGlo); type: cell-based, human; conditions: Homo sapiens, 144 h, 6 days, read-out: IC50
Procedure, shortened: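 Primary AML cells in IMDM/15% BIT with SCF, FLT3L, IL3, G-CSF, SR1 and UM729 were exposed to 8-point 1:4 dilutions (10 μM to 0.5 nM) for 6 days. Viability came from CellTiterGlo luminescence, with % inhibition versus DMSO (0.1%) fitted by nonlinear regression.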

cyclin KeGFP = experiment: Cyclin KeGFP reporter system (eGFP/mCherry MFI by flow cytometry); type: cell-based, H. sapiens; conditions: OCI-AML5 G7 clone, 3 h, 10 μM; normalized to DMSO (=100)
Procedure, shortened: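 OCI-AML5 clone G7 carrying lentiviral cyclin KeGFP/mCherry reporter. eGFP and mCherry geometric MFI measured by flow cytometry; eGFP/mCherry ratio normalized to DMSO-treated cells.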

## CN(C)C/C=C/C(=O)Nc1ccc(C(=O)N2CCC[C@@H](Nc3ncc(Cl)c(-c4c[nH]c5ccccc45)n3)C2)cc1 [THZ531]
[1]
  potency upon CUL4A or CUL4B downregulation (for SNS-032, THZ531 also DDB1 depletion): remained unaffected
CDK12/Cyclin K; Log10 (uM) 0.30103
  in vitro inhibition of CDK12/Cyclin K activity: 95.76 and 74.16 and 142.36
CDK12/Cyclin K; Log10 (uM) -1.09691
  in vitro inhibition of CDK12/Cyclin K activity: 64.02 and 71.5 and 108.97
CDK12/Cyclin K; Log10 (uM) -1.79588
  in vitro inhibition of CDK12/Cyclin K activity: 50.36 and 51.42 and 41.9
CDK12/Cyclin K; Log10 (uM) -2.49485
  in vitro inhibition of CDK12/Cyclin K activity: 37.5 and 37.15 and 28.34
CDK12/Cyclin K; read-out: IC50, in vitro inhibition of CDK12/Cyclin K activity
  IC50: 29 nM
Primary AML specimens; primary AML specimen 03H109
  IC50: 48.9 nM
Primary AML specimens; primary AML specimen 04H055
  IC50: 45.2 nM
Primary AML specimens; primary AML specimen 04H096
  IC50: 44.4 nM
Primary AML specimens; primary AML specimen 04H138
  IC50: 70.6 nM
Primary AML specimens; primary AML specimen 05H113
  IC50: 70.4 nM
Primary AML specimens; primary AML specimen 05H149
  IC50: 411 nM
Primary AML specimens; primary AML specimen 05H193
  IC50: 73.1 nM
Primary AML specimens; primary AML specimen 06H088
  IC50: 50 nM
Primary AML specimens; primary AML specimen 06H117
  IC50: 42.8 nM
Primary AML specimens; primary AML specimen 06H151
  IC50: 103 nM
Primary AML specimens; primary AML specimen 07H003
  IC50: 49.5 nM
Primary AML specimens; primary AML specimen 07H131
  IC50: 734 nM
Primary AML specimens; primary AML specimen 07H144
  IC50: 53.8 nM
Primary AML specimens; primary AML specimen 07H155
  IC50: 125 nM
Primary AML specimens; primary AML specimen 08H018
  IC50: 292 nM
Primary AML specimens; primary AML specimen 08H021
  IC50: 27.7 nM
Primary AML specimens; primary AML specimen 08H056
  IC50: 170 nM
Primary AML specimens; primary AML specimen 08H063
  IC50: 67.2 nM
Primary AML specimens; primary AML specimen 08H085
  IC50: 42.1 nM
Primary AML specimens; primary AML specimen 08H108
  IC50: 48.5 nM
Primary AML specimens; primary AML specimen 08H118
  IC50: 596 nM
Primary AML specimens; primary AML specimen 09H016
  IC50: 121 nM
Primary AML specimens; primary AML specimen 09H070
  IC50: 155 nM
Primary AML specimens; primary AML specimen 10H014
  IC50: 237 nM
Primary AML specimens; primary AML specimen 10H046
  IC50: 319 nM
Primary AML specimens; primary AML specimen 10H107
  IC50: 164 nM
Primary AML specimens; primary AML specimen 10H127
  IC50: 48.2 nM
Primary AML specimens; primary AML specimen 10H161
  IC50: 46.6 nM
Primary AML specimens; primary AML specimen 10H174
  IC50: 146 nM
Primary AML specimens; primary AML specimen 11H008
  IC50: 47.1 nM
Primary AML specimens; primary AML specimen 11H019
  IC50: 174 nM
Primary AML specimens; primary AML specimen 11H170
  IC50: 798 nM
Primary AML specimens; primary AML specimen 11H217
  IC50: 46.2 nM
Primary AML specimens; primary AML specimen 11H232
  IC50: 296 nM
Primary AML specimens; primary AML specimen 12H033
  IC50: 127 nM
Primary AML specimens; primary AML specimen 12H055
  IC50: 51.7 nM
Primary AML specimens; primary AML specimen 12H148
  IC50: 242 nM
Primary AML specimens; primary AML specimen 13H053
  IC50: 160 nM
Primary AML specimens; primary AML specimen 15H045
  IC50: 273 nM
Primary AML specimens; primary AML specimen 17H065
  IC50: 1080 nM
Cyclin KeGFP
  MFI of cyclin KeGFP over mCherry: 103.0 and 93.3 and 92.2 and 93.5
